Measurements reported in article PMC5608758, “A brain-targeting lipidated peptide for neutralizing RNA-mediated toxicity in Polyglutamine Diseases” (Scientific Reports, 2017).
“Also recorded” adds a separate entry of the source. Where two headings read alike, the source gives them in different places. Residues, ends and D or L forms follow the SMILES beside them. *: point of attachment. Palmitoyl = CCCCCCCCCCCCCCCC(=O)*

How the values were obtained:
[1] = system: EGFP CAG78 RNA-expressing HEK293 cells; format: cell-based; details: for suppression of expanded CAG RNA-induced cell death: LDH assay
Protocol: (§1) HEK293 cells were cultured at 37 °C with 5% CO2 in DMEM supplemented with 10% FBS and 1% penicillin-streptomycin. Primary rat cortical neurons were isolated and cultured as previously described. Transient transfection of HEK293 cells was performed using Lipofectamine 2000 (Life Technologies). P3V8 were delivered to HEK293 cells using the DeliverX (DX) Peptide Transfection Kit (Affymetrix) 4 hr after DNA transfection. At least two batches of independently synthesized peptides were used in the experiments.
HEK 293 cells were seeded on a 24-well plate at a density of 0.5 × 10^5, and pEGFP CAG78 DNA construct was used to transfect the cells. […] […] Seventy-two hours after treatment, LDH enzyme activity in the cell culture medium was measured as described before. Experimental groups were normalized to the untransfected control. After normalization, data were analyzed using the dose response-inhibition curve (nonlinear regression-variable slope) to determine the IC50 value (Prism6 software, GraphPad Software, Inc.). Each experiment was repeated at least 3 times.

[2] = system: primary rat cortical neurons; assay: LDH cytotoxicity in primary neurons; format: cell-based; details: 0.01 nM to 1 µM, 72 hr; P3V8 transfected with DeliverX; 3 independent experiments
Protocol: as §1, with “experiments. […]” for “experiments.”
cortical neurons. A density of […] of primary rat cortical neurons were seeded on culture […]
and 1000 nM of P3V8 peptide (transfected with DeliverX). The lactate dehydrogenase (LDH) cytotoxicity activity was measured 72 hr post-treatment. Fold change of LDH activity was normalized to untreated cells. Data are expressed as mean ± S.E.M. for 3 independent experiments. NS indicates no significance.
(1 picture or pasted object on this page, not shown here)
The LDH cytotoxicity activity was measured 72 hr post-treatment. Fold change of LDH activity was normalized to untreated cells. Data are expressed as mean ± S.E.M. for 3 independent experiments. NS indicates no significance.

HEK293 cells = assay: Cellular uptake studies in HEK293 cells; format: in vitro ADME; details: 3 hr, 37 °C, cell lysate, LC/MS, normalized to total protein; for cellular uptake level: 100 nM peptide
Protocol: HEK293 cells were seeded on a 6-well plate at a density of 6 × 10^5 and cultured overnight at 37 °C with 5% CO2 in DMEM supplemented with 10% FBS and 1% penicillin-streptomycin. Cells were then treated with 100, 500 or 1000 nM of respective peptide at 37 °C for 3 hr. After treatment, the cells were washed with ice-cold PBS and then lysed by 2% SDS solution. Aliquot (100 µl) of the cell lysate was added with 200 µl acetonitrile and centrifuged at 13000 rcf for 10 min to precipitate the proteins. The collected supernatant was subjected to LC/MS analysis. The protein concentration of the cell lysate was measured using a bicinchoninic acid protein assay kit following Sigma’s protocol.

[3] = In vitro stability in rat plasma; format: in vitro ADME; details: for remaining at 3 h, 2000 ng/mL: rat; for remaining at 1 h, 500 ng/mL / remaining at 3 h, 1000 ng/mL: LLOQ 12.5 ng/mL P3V8
Protocol: (§2) Sprague-Dawley (SD) rats (male, 180-200 g) were supplied by the Laboratory Animal Services Centre at The Chinese University of Hong Kong. All animal studies were conducted under the approval of the Animal Ethics Committee of The Chinese University of Hong Kong, and were performed in accordance with relevant guidelines and regulations. Blank rat brain homogenate was prepared by ultrasonic probe homogenization (Micoson XL-2000, Misonix, […], USA) of brains collected from the control rats. Blank rat plasma was prepared by centrifugation (8000 rcf for 3.5 min) of blood collected from control rats. […] The mixtures were incubated at 37 °C with 100 rpm in a water bath for 1 or 3 hr. […] The supernatant was collected for LC/MS/MS analysis.

[4] = In vitro stability in rat brain homogenate; format: in vitro ADME; details: for remaining at 1 h, 1000 ng/mL / remaining at 1 h, 2000 ng/mL: incubation 1 hr; for remaining at 1 h, 2000 ng/mL: 100 rpm
Protocol: as §2

[5] = male, Sprague-Dawley, rat plasma, 500 ng/mL, 37 °C, incubation 1 hr, LC/MS/MS, mean ± S.E.M. of 5, read-out: Percentage of remained
[6] = male, Sprague-Dawley, rat plasma, 1000 ng/mL, 37 °C, incubation 3 hr, LC/MS/MS, mean ± S.E.M. of 5, read-out: Percentage of remained
[7] = rat plasma, 2000 ng/mL, 37 °C, 100 rpm, incubation 1 hr, LC/MS/MS, mean ± S.E.M. of 5 independent experiments
[8] = male, Sprague-Dawley, rat, tissue homogenate, read-out: Percentage of remained

## CCCCCCCCCCCCCCCC(=O)N[C@@H](CC(=O)O)C(=O)NCC(=O)N[C@@H](CCCCN)C(=O)N[C@@H](CO)C(=O)N[C@@H](CCCCN)C(=O)NCC(=O)N[C@H](C(=O)N[C@@H](C)C(=O)N[C@@H](Cc1ccc(O)cc1)C(=O)N[C@H](C(=O)N[C@@H](CCC(=O)O)C(=O)N[C@@H](Cc1ccccc1)C(=O)N[C@@H](CCCCN)C(N)=O)[C@@H](C)CC)[C@@H](C)CC [L1P3V8] (Palmitoyl-DGKSKGIAYIEFK-NH2)
[1]; read-out: IC50, inhibition of cell death (LDH enzyme activity reduced by 50%), peptide added without DeliverX immediately after plasmid transfection, LDH 72 hr after treatment, mean ± S.E.M., at least 3 experiments
  IC50: ~100 nM
[2]
  cytotoxicity (LDH release): no cytotoxicity; also recorded: no cytotoxic effects
HEK293 cells
  cellular uptake level: low cellular concentration
HEK293 cells; 500 nM and 1 µM peptide
  cellular uptake level compared to P3V8: higher cellular concentration
[3]; male, Sprague-Dawley, plasma, read-out: Percentage of remained
  remaining at 3 h, 2000 ng/mL: 86.9 ± 5.5%
[3]; [5]
  remaining at 1 h, 500 ng/mL: 88.1 ± 4.9%
[3]; male, Sprague-Dawley, rat plasma, 500 ng/mL, 37 °C, incubation 3 hr, LC/MS/MS, mean ± S.E.M. of 5, read-out: Percentage of remained
  remaining at 3 h, 500 ng/mL: 73.8 ± 5.7%
[3]; [6]
  remaining at 3 h, 1000 ng/mL: 81.2 ± 1.5%
[3]; male, Sprague-Dawley, rat plasma, 2000 ng/mL, 37 °C, 100 rpm, incubation 1 hr, LC/MS/MS, mean ± S.E.M. of 5 independent experiments, read-out: Percentage of remained
  remaining at 1 h, 2000 ng/mL: 98.8 ± 5%
[3]; rat plasma, 1000 ng/mL, 37 °C, incubation 1 hr, LC/MS/MS, mean ± S.E.M. of 5
  Percentage of remained: 98.7 ± 3.9 %
[3]; [7]
  Percentage of remained: nearly all L1P3V8 remained intact
[4]; [8]
  remaining at 1 h, 500 ng/mL: < 20%
  remaining at 3 h, 500 ng/mL: < 20%
[4]; male, Sprague-Dawley, tissue homogenate, rat brain homogenate, 37 °C, LC/MS/MS, mean ± S.E.M. of 5, read-out: Percentage of remained
  remaining at 1 h, 1000 ng/mL: 22.8 ± 1.2%
[4]; male, Sprague-Dawley, tissue homogenate, rat brain homogenate, 37 °C, incubation 3 hr, LC/MS/MS, mean ± S.E.M. of 5, LLOQ 12.5 ng/mL P3V8, read-out: Percentage of remained
  remaining at 3 h, 1000 ng/mL: 15.8 ± 0.7%
[4]; male, Sprague-Dawley, tissue homogenate, rat brain homogenate, 2000 ng/mL, 37 °C, LC/MS/MS, mean ± S.E.M. of 5, read-out: Percentage of remained
  remaining at 1 h, 2000 ng/mL: 45 ± 3.5%
[4]; male, Sprague-Dawley, tissue homogenate, rat brain homogenate, 2000 ng/mL, 37 °C, incubation 3 hr, LC/MS/MS, mean ± S.E.M. of 5, LLOQ 12.5 ng/mL P3V8, read-out: Percentage of remained
  remaining at 3 h, 2000 ng/mL: 21.2 ± 3%

## Ac-DGKSKGIAYIEFK-NH2 [P3V8]
[1]; peptide alone, without DeliverX
  suppression of expanded CAG RNA-induced cell death: did not exert any cellular effect
[1]; peptide transfected with DeliverX 4 hr after plasmid transfection
  suppression of expanded CAG RNA-induced cell death: could effectively alleviate the cytotoxicity
[2]
  cytotoxicity (LDH release): no cytotoxicity; also recorded: no significant cell death
HEK293 cells
  cellular uptake level: no uptake
[3]; male, Sprague-Dawley, rat plasma, read-out: Percentage of remained
  remaining at 3 h, 2000 ng/mL: < 0.6%
[3]; [5]
  remaining at 1 h, 500 ng/mL: < 2.5%
[3]; male, Sprague-Dawley, rat plasma, 1000 ng/mL, 37 °C, incubation 1 hr, LC/MS/MS, mean ± S.E.M. of 5, read-out: Percentage of remained
  remaining at 1 h, 1000 ng/mL: 8.6 ± 0.5%
[3]; [6]
  remaining at 3 h, 1000 ng/mL: < 1.3%
[3]; [7]
  Percentage of remained: 20.7 ± 3.3%
[3]; rat plasma, 2000 ng/mL, 37 °C, 100 rpm, incubation 3 hr, LC/MS/MS, mean ± S.E.M. of 5, LLOQ 12.5 ng/mL P3V8, 100 ng/mL L1P3V8
  Percentage of remained: almost completely degraded
[4]; male, Sprague-Dawley, rat, rat brain homogenate, read-out: Percentage of remained
  remaining at 1 h, 500 ng/mL: < 2.5%
[4]; male, Sprague-Dawley, rat brain homogenate, 37 °C, LC/MS/MS, mean ± S.E.M. of 5, read-out: Percentage of remained
  remaining at 1 h, 1000 ng/mL: 4 ± 1.6%
[4]; male, Sprague-Dawley, rat brain homogenate, 37 °C, incubation 3 hr, LC/MS/MS, mean ± S.E.M. of 5, LLOQ 12.5 ng/mL P3V8, read-out: Percentage of remained
  remaining at 3 h, 1000 ng/mL: < 1.3%
[4]; male, Sprague-Dawley, rat brain homogenate, 2000 ng/mL, 37 °C, LC/MS/MS, mean ± S.E.M. of 5, read-out: Percentage of remained
  remaining at 1 h, 2000 ng/mL: 3.3 ± 0.6%
[4]; male, Sprague-Dawley, rat brain homogenate, 2000 ng/mL, 37 °C, incubation 3 hr, LC/MS/MS, mean ± S.E.M. of 5, LLOQ 12.5 ng/mL P3V8, read-out: Percentage of remained
  remaining at 3 h, 2000 ng/mL: < 0.6%
[4]; rat brain homogenate, 2000 ng/mL, 37 °C, incubation 3 hr, LC/MS/MS, mean ± S.E.M. of 5, LLOQ 12.5 ng/mL P3V8
  Percentage of remained: almost completely degraded
